In patent US9169241B2, “Quinolinyloxyphenylsulfonamides” (Max-Planck-Gesellschaft Zur Forderung der Wissenschaften …, priority 2009, dated 2015):
Read-outs that look alike come from different tables or passages of the source.

Assays:
A172 = test: Cell vitality assay (ATP assay, CellTiter-Glo); format: cell-based; conditions: Homo sapiens, A 172; A172, 72 h; Table IIa; read-out: IC50 ATP-Assay after 72 h A172
Procedure, shortened: (§1)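 ATP-based luminescence (CellTiter-Glo) after 72 h exposure of 1000 cells/well to seven compound concentrations from 0.195 to 12.5 μM. IC50 defined as concentration reducing ATP to 50% of DMSO control.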

Hs578T [1] = test: Cell vitality assay (ATP assay, CellTiter-Glo); format: cell-based; conditions: Homo sapiens, Hs-578T; HS578T cell line, 72 h; Table Ib; read-out: IC50 ATP-Assay HS578T after 72 h
Procedure, shortened: as §1

MDA-MB231 = test: Cell vitality assay (ATP assay, CellTiter-Glo); format: cell-based; conditions: Homo sapiens, MDA-MB-231
Procedure, shortened: as §1

SF126 = test: Cell vitality assay (ATP assay, CellTiter-Glo); format: cell-based; conditions: Homo sapiens, SF-126
Procedure, shortened: as §1

U118 = test: Cell vitality assay (ATP assay, CellTiter-Glo); format: cell-based
Procedure, shortened: as §1

indicated cell line = test: Wound healing migration assay (Table IV); format: cell-based; conditions: compounds at 12.5, 6.25, 3.125 μM, 48 h-72 h
Procedure, shortened: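 Compound exposure at 12.5, 6.25 and 3.125 μM, with DMSO control, on scratch-wounded monolayers (150000 cells/24 well, overnight). Wound closure imaged by microscopy, fixed with crystal violet after 48 h or 72 h depending on cell line; IC50 is the concentration giving 50% wound size between t0 and t48/t72.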

Hs578T [2] = test: Matrigel outgrowth assay/branching assay; format: cell-based; conditions: Homo sapiens, Hs-578T; HS578T cell line; Table Ib; read-out: Total branching inhibition in Matrigel HS578T
Procedure, shortened: (§2)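 Matrigel 3 mg/ml, polymerized 1 h 37° C; 5000 cells/well + cmpd 3.125/1.56/0.78 μM or DMSO. Imaged 48/72/96 h, 5× objective. Positive = total branching block.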

tumor cell = test: Matrigel outgrowth assay/branching assay (Table Va); format: cell-based
Procedure, shortened: as §2

C8161 = test: Cell vitality assay (ATP assay, CellTiter-Glo); format: cell-based; conditions: Homo sapiens; C8161, 72 h; Table IIa; read-out: IC50 ATP-Assay after 72 h C8161
Procedure, shortened: as §1

SF763 = test: Cell vitality assay (ATP assay, CellTiter-Glo); format: cell-based; conditions: SF763, 72 h; Table IIa; read-out: IC50 ATP-Assay after 72 h SF763
Procedure, shortened: as §1

[3] = cell vitality assay, MDA-MB231, Table IIc, read-out: IC50 MDA-MB231
[4] = SF126, 72 h, Table IIa, read-out: IC50 ATP-Assay after 72 h SF126
[5] = cell vitality assay, SF126, Table IIb, read-out: IC50 SF126
[6] = U118, 72 h, Table IIa, read-out: IC50 ATP-Assay after 72 h U118
[7] = cell vitality assay, U118, Table IIc, read-out: IC50 U118
[8] = Homo sapiens, A 172, A172 cells, read-out: IC50 Wound healing Assay A172
[9] = Homo sapiens, SF-126, SF126 cells, read-out: IC50 Wound healing Assay SF126
[10] = Homo sapiens, C8161 cells, read-out: IC50 Wound healing Assay C8161
[11] = U118 cells, read-out: IC50 Wound healing Assay U118
[12] = Homo sapiens, C8161 cells, read-out: Total branching inhibition in Matrigel C8161
[13] = Homo sapiens, Hs-578T, Hs578T cells, read-out: Total branching inhibition in Matrigel Hs578T
[14] = U118 cells, read-out: Total branching inhibition in Matrigel U118
[15] = U138 cells, read-out: Total branching inhibition in Matrigel U138
[16] = SF763 cells, read-out: IC50 Wound healing Assay SF763

Compound	IC50 (A172) [µM]	IC50 (Hs578T [1]) [µM]	IC50 (MDA-MB231; [3]) [µM]	IC50 (SF126; [4]) [µM]	IC50 (SF126; [5]) [µM]	IC50 (U118; [6]) [µM]	IC50 (U118; [7]) [µM]	IC50 (indicated cell line; [8]) [µM]	IC50 (indicated cell line; [9]) [µM]	IC50 (indicated cell line; [10]) [µM]	IC50 (indicated cell line; [11]) [µM]	IC50 (Hs578T [2]) [µM]	IC50 (tumor cell; [12]) [µM]	IC50 (tumor cell; [13]) [µM]	IC50 (tumor cell; [14]) [µM]	IC50 (tumor cell; [15]) [µM]	melting point [°C]	IC50 (indicated cell line; [16]) [µM]	further results
COc1cc2c(Oc3ccc(NS(=O)(=O)c4cc(F)ccc4F)cc3F)ccnc2cc1OCCCN1CCN(C)CC1 [Example 12, 2,5-Difluoro-N-(3-fluoro-4-{6-methoxy-7-[3-(4-methyl-piperazin-1-yl)-propoxy]-quinolin-4-yloxy}-phenyl)-benzenesulfonamide]	≤ 12.5	≤ 12.5	≤ 12.5	≤ 12.5	≤ 12.5	≤ 12.5	≤ 12.5	≤ 12.5	≤ 12.5	≤ 12.5	≤ 12.5	≤ 10	≤ 5	≤ 5	≤ 5	≤ 5			
COC(=O)c1sccc1S(=O)(=O)Nc1ccc(Oc2ccnc3cc(OCCCN4CCCC(C)C4)c(OC)cc23)c(F)c1 (stereo not drawn) [Example 66, 3-(3-Fluoro-4-{6-methoxy-7-[3-(3-methyl-piperidin-1-yl)-propoxy]-quinolin-4-yloxy}-phenylsulfamoyl)-thiophene-2-carboxylic acid methyl ester]	≤ 12.5	≤ 12.5	≤ 12.5	≤ 12.5	≤ 12.5	≤ 12.5	≤ 12.5	≤ 12.5	≤ 12.5		≤ 12.5	10 to 25	≤ 5	≤ 5	≤ 5	5 to 50	132 to 134		
COc1cc2c(Oc3ccc(NS(=O)(=O)c4ccccc4[N+](=O)[O-])cc3F)ccnc2cc1OCCCN1CCN(C)CC1 [Example 21, N-(3-Fluoro-4-{6-methoxy-7-[3-(4-methyl-piperazin-1-yl)-propoxy]-quinolin-4-yloxy}-phenyl)-2-nitro-benzenesulfonamide]				12.5 to 50		12.5 to 50				≤ 12.5		≤ 10	5 to 50	≤ 5	5 to 50	5 to 50	125 to 128	12.5 to 50	IC50 (C8161): 12.5 to 50 µM; IC50 (MDA-MB231; MDA-MB231, 72 h, Table IIa, read-out: IC50 ATP-Assay after 72 h MDA-MB231): 12.5 to 50 µM; IC50 (SF763): 12.5 to 50 µM
COc1cc2c(Oc3ccc(NS(=O)(=O)c4ccccc4C(F)(F)F)cc3F)ccnc2cc1OCCCN(C)C [Example 100, N-{4-[7-(3-Dimethylamino-propoxy)-6-methoxy-quinolin-4-yloxy]-3-fluoro-phenyl}-2-trifluoromethyl-benzenesulfonamide]	≤ 12.5	≤ 12.5		≤ 12.5		≤ 12.5		≤ 12.5	≤ 12.5	12.5 to 50	≤ 12.5	≤ 10	≤ 5	≤ 5	≤ 5	5 to 50	89 to 91	≤ 12.5	
COc1cc2c(Oc3ccc(NS(=O)(=O)c4ccccc4C(F)(F)F)cc3F)ccnc2cc1OCCCN1CCN(C)CC1 [Example 24, N-(3-Fluoro-4-{6-methoxy-7-[3-(4-methyl-piperazin-1-yl)-propoxy]-quinolin-4-yloxy}-phenyl)-2-trifluoromethyl-benzenesulfonamide]			≤ 12.5		≤ 12.5		12.5 to 50			≤ 12.5			≤ 5	≤ 5	≤ 5	5 to 50	102 to 106		
